Here are results for 2 compounds from paper PMC12430443, “Discovery of Novel Benzamide-Based Sigma-1 Receptor Agonists with Enhanced Selectivity and Safety” (Molecules, 2025).

Structures are written as SMILES.

The target of data set [1] is T1, CYP2C8 (Homo sapiens, UniProt P10632).
T1 construct: tissue Eurofins Cerep (assay provider); host or cells: human liver microsomes
As to the kind of experiment: CYP inhibition in human liver microsomes. Type of data set: in vitro ADME. Particulars: n = 2, read-out: CYP inhibition 2C8. On the procedure:
(§1) Microsomal stability was evaluated using human liver microsomes at 10 µM (Table 3). […] Since cytochrome P450 (CYP) enzymes—especially families 1 to 3—play major roles in drug metabolism, CYP inhibition was tested against the human isoforms CYP1A, 2B6, 2C8, 2C9, 2C19, 2D6, and 3A, as recommended by FDA and EMA guidelines. […] Membrane transport proteins, including the ATP-binding cassette (ABC) and solute carrier (SLC) families, affect drug pharmacokinetics and potential drug–drug interactions. The inhibitory effects of compounds 2 and 6 were assessed against five ABC transporters (P-gp, BCRP, MRP1, MRP2, and MRP3) and seven SLC transporters (OAT1, OAT3, OATP1B1, OCT1, OCT2, ASBT, and NTCP).
(§2) Standardized in vitro ADME experiments were performed by Eurofins Cerep (Poitiers, France). Solubility assays were performed in PBS at pH 7.4, but also in simulated gastric fluid (SGF) and intestinal fluid (SIF), through the classical shake-flask method described by Lipinski et al., using HPLC-UV/VIS technology. The results were expressed in µM. The compound was classically evaluated at 10 µM for all of the ADME analyses. Bidirectional permeability (apical A to basolateral B pH 6.5/7.4, and basolateral B to apical A pH 7.4/6.5) was assessed in the epithelial colorectal adenocarcinoma cell line (Caco-2 cell line). The results were expressed as ×10^−6 cm/s (Papp) and as % recovery. The efflux ratio, i.e., Papp (B→A)/Papp(A→B), was calculated. Plasma protein binding was analyzed by HPLC-MS/MS after 4 h of incubation at 37 °C, as described by Banker et al.. Concentration was evaluated by LC/MS-MS. CYP inhibition was performed in human liver microsomes as described in [28]. Analysis of the respective metabolites was performed by HPLC-MS/MS. Transporter inhibition analysis was also performed in overexpressing cell lines. Respective metabolites for each specific transporter substrate were analyzed by fluorometry or scintillation counting, and % inhibition of control values were calculated. P-glycoprotein transporter substrate assessment was performed by bidirectional permeability analysis (apical A to basolateral B pH 7.4/7.4, and basolateral B to apical A pH 7.4/7.4) in the Caco-2 cell line with and without verapamil, as described in [26]. The results were expressed as ×10^−6 cm/s (Papp) and as % recovery. The efflux ratio was calculated as Papp(B→A)/Papp(A→B). CYP450 induction was assessed in human hepatocytes by measuring the mRNA levels of seven CYP isoforms via qPCR, as described in [40]. The compound was tested at 1, 10, and 100 μM, and fold-induction values were compared with predefined cut-off thresholds for each isoform and hepatocyte lot.

Data set [2] concerns the target T2, CYP2D6 (Homo sapiens, UniProt P10635).
T2 construct: tissue Eurofins Cerep (assay provider); host or cells: human liver microsomes
As to the kind of experiment: CYP inhibition in human liver microsomes. The class given is in vitro ADME. Particulars: n = 2, read-out: CYP inhibition 2D6. On the procedure: as §1, §2

Data set [3] concerns CYP1A. The data set can be described thus: CYP inhibition in human liver microsomes. The settings on record: n = 2, read-out: CYP inhibition 1A. Type of data set: in vitro ADME. On the procedure:
as §1, §2

Data set [4] relates to CYP3A. As to the kind of experiment: CYP inhibition in human liver microsomes. Type of data set: in vitro ADME. The settings on record: n = 2, read-out: CYP inhibition 3A. On the procedure:
as §1, §2

Data set [5] has as its target T3, CYP2C19 (Homo sapiens, UniProt P33261).
T3 construct: tissue Eurofins Cerep (assay provider); host or cells: human liver microsomes
As to the kind of experiment: CYP inhibition in human liver microsomes. The class given is in vitro ADME. Particulars: n = 2, read-out: CYP inhibition 2C19. On the procedure: as §1, §2

For data set [6], the target named is T4, CYP2C9 (Homo sapiens, UniProt P11712).
T4 construct: tissue Eurofins Cerep (assay provider); host or cells: human liver microsomes
The data set can be described thus: CYP inhibition in human liver microsomes. The class given is in vitro ADME. The settings on record: n = 2, read-out: CYP inhibition 2C9. On the procedure: as §1, §2

Data set [7] in a line: Plasma stability in mouse plasma. Particulars: male CD-1 mouse plasma, 37 °C, read-out: Mouse plasma t1/2 (converted). Type of data set: in vitro ADME. On the procedure: (§3) Solubility and stability remained unchanged in simulated gastric fluid (SGF) and simulated intestinal fluid (SIF), which mimic gastrointestinal digestion. Intestinal permeability was assessed using a two-chamber system with apical (A, pH 6.5) and basolateral (B, pH 7.4) compartments, representing the luminal and blood/mesenteric lymph sides of the gastrointestinal tract, respectively. […] The efflux ratios for both compounds ranged between 1 and 2, indicating improved permeability relative to the reference compound 1.
Plasma stability was evaluated by M2SV (Lille, France) in duplicate. Male CD-1 mouse plasma (lithium-heparinized; Sera Laboratories International Ltd. BioIVT, West Sussex, UK) was pre-incubated for 10 min at 37 °C before addition of the test compound (final concentration 10 μM, 0.1% DMSO). At 0, 60, 1440, and 2880 min, aliquots were transferred to chilled tubes containing acetonitrile and propranolol (1 μM) as internal standard.

A short description of data set [8]: Bidirectional permeability in Caco-2 cells. The class given is in vitro ADME. The settings on record: human; for Papp A→B at 10 µM / Papp B→A at 10 µM: pH 7.4, 10 µM; for Papp A→B at 10 µM: n = 2, read-out: Permeability A/B pH7.4/7.4; for Papp B→A at 10 µM: n = 2, read-out: Permeability B/A pH7.4/7.4; for efflux ratio at 10 µM: read-out: e-ratio. On the procedure:
as §3, §2

Data set [9] concerns the target T5, S2R (Homo sapiens, UniProt Q5BJF2).
T5 construct: For the S2R assay, Jurkat cell membranes (10–20 μg protein/tube) were incubated at room temperature for 1 h; host or cells: Jurkat cell membranes
As to the kind of experiment: S2R competitive radioligand binding, [3H]-DTG with excess (+)-pentazocine, Jurkat cell membranes. Particulars: [3H]-DTG displacement with excess (+)-pentazocine, n = 2. The text has this:
S1R and S2R affinities were classically evaluated through competitive binding assays using radioligands, following the protocol described by Ganapathy et al.. The selective radioligand [^3H] (+)-pentazocine was employed as the classic prototypical ligand, selectively binding to the orthosteric S1R-binding sites. […] Jurkat cell membranes served as the receptor source in both assays. The equilibrium dissociation constants (Ki) for S1R and S2R were derived from the IC50 values of each compound, and selectivity ratios (S2R/S1R) were subsequently calculated (Table 1, Figures S2 and S3).
Binding assays were performed by Eurofins Cerep (Poitiers, France) according to the protocol of Ganapathy. […] For the S2R assay, Jurkat cell membranes (10–20 μg protein/tube) were incubated at room temperature for 1 h in the same buffer with [^3H]-DTG (25 nM) in the presence of (+)-pentazocine (1 μM) to saturate S1R, along with a range of test compound concentrations. Bound radioactivity was quantified by liquid scintillation counting. Nonspecific binding was determined under identical conditions in the presence of 10 μM unlabeled haloperidol. The IC50 values (concentration causing a half-maximal inhibition of control-specific binding) and Hill coefficients (nH) were determined by non-linear regression analysis of the competition curves generated with mean replicate values using Hill equation curve-fitting. This analysis was performed using software developed at Cerep (Hill software) and validated by comparison with data generated by the commercial software SigmaPlot ®4.0 for Windows® (©1997 by SPSS Inc.). Inhibition constants (Ki) were calculated from IC50 values using the method of Cheng and Prusoff.

T2 sequence (P10635 whole entry): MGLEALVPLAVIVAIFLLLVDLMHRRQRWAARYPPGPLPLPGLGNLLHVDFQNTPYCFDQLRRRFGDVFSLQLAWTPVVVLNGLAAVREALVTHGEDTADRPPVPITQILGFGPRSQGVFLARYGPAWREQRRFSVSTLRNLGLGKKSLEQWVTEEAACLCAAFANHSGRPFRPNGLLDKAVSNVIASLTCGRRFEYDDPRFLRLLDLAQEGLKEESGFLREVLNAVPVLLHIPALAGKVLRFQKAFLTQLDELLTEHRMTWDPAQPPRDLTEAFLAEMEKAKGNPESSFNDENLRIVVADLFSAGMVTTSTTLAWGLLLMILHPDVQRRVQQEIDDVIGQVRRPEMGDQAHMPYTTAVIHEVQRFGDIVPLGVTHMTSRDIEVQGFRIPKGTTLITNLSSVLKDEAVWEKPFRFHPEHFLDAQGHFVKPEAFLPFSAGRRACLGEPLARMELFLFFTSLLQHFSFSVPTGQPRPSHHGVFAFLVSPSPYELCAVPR
T3 sequence (P33261 whole entry): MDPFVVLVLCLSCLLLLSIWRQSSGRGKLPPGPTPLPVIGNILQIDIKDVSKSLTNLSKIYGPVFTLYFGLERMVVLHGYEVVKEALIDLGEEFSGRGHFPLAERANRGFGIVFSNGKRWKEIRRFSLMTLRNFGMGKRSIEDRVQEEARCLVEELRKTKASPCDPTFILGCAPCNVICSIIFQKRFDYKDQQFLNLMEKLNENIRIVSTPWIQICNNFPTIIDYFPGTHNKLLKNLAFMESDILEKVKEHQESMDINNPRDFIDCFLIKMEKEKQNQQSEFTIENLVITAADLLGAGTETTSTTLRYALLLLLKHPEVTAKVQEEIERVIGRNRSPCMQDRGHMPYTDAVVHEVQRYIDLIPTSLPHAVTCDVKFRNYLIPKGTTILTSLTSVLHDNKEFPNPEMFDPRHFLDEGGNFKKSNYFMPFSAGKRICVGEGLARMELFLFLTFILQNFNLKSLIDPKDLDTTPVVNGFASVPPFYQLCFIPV
T1 sequence (P10632 whole entry): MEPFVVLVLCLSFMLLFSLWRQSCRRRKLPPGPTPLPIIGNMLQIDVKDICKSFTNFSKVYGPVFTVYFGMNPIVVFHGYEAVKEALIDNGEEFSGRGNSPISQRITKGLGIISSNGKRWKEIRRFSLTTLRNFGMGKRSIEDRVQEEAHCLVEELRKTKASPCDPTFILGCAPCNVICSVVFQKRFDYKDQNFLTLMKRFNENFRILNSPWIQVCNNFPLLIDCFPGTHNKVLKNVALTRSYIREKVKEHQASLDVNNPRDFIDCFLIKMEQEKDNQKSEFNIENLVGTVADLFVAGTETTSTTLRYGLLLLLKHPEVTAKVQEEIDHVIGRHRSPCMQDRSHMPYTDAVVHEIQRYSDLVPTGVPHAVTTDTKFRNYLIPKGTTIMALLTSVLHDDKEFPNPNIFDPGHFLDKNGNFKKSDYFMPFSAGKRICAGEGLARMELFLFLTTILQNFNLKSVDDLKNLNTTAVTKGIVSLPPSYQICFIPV
T5 sequence (Q5BJF2 whole entry): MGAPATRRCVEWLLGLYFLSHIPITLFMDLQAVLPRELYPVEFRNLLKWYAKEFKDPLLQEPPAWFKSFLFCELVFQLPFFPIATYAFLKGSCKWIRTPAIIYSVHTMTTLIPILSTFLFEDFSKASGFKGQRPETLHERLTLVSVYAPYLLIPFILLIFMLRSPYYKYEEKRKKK
T4 sequence (P11712 whole entry): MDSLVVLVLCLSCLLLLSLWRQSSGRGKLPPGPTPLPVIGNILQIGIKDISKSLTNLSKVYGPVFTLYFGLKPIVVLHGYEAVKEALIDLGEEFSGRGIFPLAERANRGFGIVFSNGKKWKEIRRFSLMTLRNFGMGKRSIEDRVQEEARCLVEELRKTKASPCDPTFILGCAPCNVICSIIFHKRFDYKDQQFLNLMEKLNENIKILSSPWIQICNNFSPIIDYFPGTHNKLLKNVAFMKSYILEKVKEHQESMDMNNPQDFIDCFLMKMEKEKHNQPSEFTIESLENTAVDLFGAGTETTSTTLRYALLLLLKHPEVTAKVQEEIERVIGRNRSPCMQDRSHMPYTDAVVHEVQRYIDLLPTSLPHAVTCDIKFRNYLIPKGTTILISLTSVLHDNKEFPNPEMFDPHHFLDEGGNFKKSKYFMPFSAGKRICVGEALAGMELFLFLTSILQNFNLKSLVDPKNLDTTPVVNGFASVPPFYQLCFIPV

As to `CN(CCC(=O)NCc1cccc(Cl)c1)Cc1ccccc1` [Compound 2, 3-(Benzylmethylamino)-N-(3-chlorobenzyl)propanamide], the inhibition at 10 µM was -16.8% in data set [1]; 80.5% in data set [2]; 23.3% in data set [3]; 30.9% in data set [4]; 43.9% in [5]; 13.1% in [6]. Also, the half-life at 10 µM in data set [7] is 35 h. Further, the Papp A→B at 10 µM in data set [8] was 39 ×10⁻⁶ cm/s. The Papp B→A at 10 µM in data set [8] amounted to 67.4 ×10⁻⁶ cm/s. The efflux ratio at 10 µM in data set [8] amounted to 1.7. This compound yielded a 50% inhibitory concentration (IC50) in data set [9] of 270 nM.
For `CN(CCC(=O)NCc1ccc(C#N)cc1)Cc1ccccc1` [Compound 6, 3-(Benzylmethylamino)-N-(4-cyanobenzyl)propanamide], the inhibition at 10 µM in data set [1] was -12.1%; in data set [2], 87.7%; in data set [3], 13.2%; in data set [4] it was 17.4%; in [5] it was 30%; in data set [6], 10%. In addition, the half-life at 10 µM in [7] was greater than 48 h. Further, in [8], the Papp A→B at 10 µM turned out to be 49.8 ×10⁻⁶ cm/s. Also, the Papp B→A at 10 µM in data set [8] came out at 60.9 ×10⁻⁶ cm/s. For the same compound, the efflux ratio at 10 µM in data set [8] stood at 1.2. Also, the half-inhibitory concentration (IC50) in data set [9] came to 2400 nM.
